Like-named read-outs stand apart in the source and are kept apart here. Numbered stars: 1 amine (or outer) side, 2 acyl side, 3 side chain; on linkers, the order of the positions; unused ones are H or OH. Bridge positions count the residues as written; N and C are the ends. Square brackets hold non-standard residues; d marks the D form. Side chains are listed from the residue outwards. Peptide text beside a SMILES is read from it. * marks the point of attachment. C18 diacid = O=C(O)CCCCCCCCCCCCCCCCC(=O)*; γGlu = O=C(O)[C@H](CCC(=O)[*:2])N[*:1]; Aib = CC(C)(N)C(=O)O
What was measured:
[1] = molecular target: T1, human amylin receptor (calcitonin receptor co-expressed with receptor activity modifying protein, RAMP3) (hAMYR3) (Homo sapiens, UniProt O60896+P30988); test: cAMP production in 1321N1 cells with stable recombinant expression of human amylin receptor (hAMYR3); assay type: cell-based
T1 construct: expressed in transfected cells
T1 sequence (P30988 25-474): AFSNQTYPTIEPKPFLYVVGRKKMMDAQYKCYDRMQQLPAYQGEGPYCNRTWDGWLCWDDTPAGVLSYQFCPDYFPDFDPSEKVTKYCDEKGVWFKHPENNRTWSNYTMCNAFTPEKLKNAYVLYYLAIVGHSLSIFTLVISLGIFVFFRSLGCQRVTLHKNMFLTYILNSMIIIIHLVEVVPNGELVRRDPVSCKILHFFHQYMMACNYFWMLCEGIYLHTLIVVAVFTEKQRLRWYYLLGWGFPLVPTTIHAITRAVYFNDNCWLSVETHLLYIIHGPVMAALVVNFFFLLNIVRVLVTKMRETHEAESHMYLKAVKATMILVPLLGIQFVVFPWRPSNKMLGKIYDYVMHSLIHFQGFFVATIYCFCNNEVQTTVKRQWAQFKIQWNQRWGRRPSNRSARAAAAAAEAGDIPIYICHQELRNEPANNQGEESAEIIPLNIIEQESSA
T1 sequence (O60896 24-148 partner): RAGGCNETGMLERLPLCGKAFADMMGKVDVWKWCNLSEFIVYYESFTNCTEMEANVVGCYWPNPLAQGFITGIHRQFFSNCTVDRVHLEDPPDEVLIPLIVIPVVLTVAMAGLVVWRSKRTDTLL
In short: (§1)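 EC50 values come from 4-parameter logistic fits of HTRF cAMP signal, normalised to maximal calcitonin or amylin effect. Peptides were tested in duplicate for 30 min at RT in IBMX-containing (0.5 mM) BSA/HEPES buffer pH 7.4 on stable 1321N1 (human CTR, AMYR3) or HEK (rat CTR, AMYR3) lines.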

[2] = molecular target: T2, human calcitonin receptor (hCTR) (Homo sapiens, UniProt P30988); test: cAMP production in 1321N1 cells with stable recombinant expression of human calcitonin receptor (hCTR); assay type: cell-based
T2 construct: expressed in transfected cells
T2 sequence (P30988 25-474): T1 sequence (P30988 25-474)
In short: as §1

| SMILES | EC50 [1] | EC50 [2] | Ratio (selectivity hAMYR vs hCTR, ratio of EC50 values at the two receptors) ([1]; EC50 hCTR / EC50 hAMYR3) | EC50 ([1]; cAMP, 1321N1 cells, assay buffer with 0.1% BSA, read-out: EC50 (pM) hAMYR3) | EC50 ([2]; cAMP, 1321N1 cells, assay buffer with 0.1% BSA, read-out: EC50 (pM) hCTR) |
| --- | --- | --- | --- | --- | --- |
| CC[C@H](C)[C@H](NC(=O)[C@@H]1CCCN1C(=O)CNC(=O)[C@H](Cc1ccccc1)NC(=O)[C@H](CC(N)=O)NC(=O)C(C)(C)NC(=O)[C@H](CO)NC(=O)[C@H](CO)NC(=O)[C@H](Cc1c[nH]cn1)NC(=O)[C@@H](NC(=O)[C@H](CC(C)C)NC(=O)[C@H](Cc1ccccc1)NC(=O)[C@H](CC(N)=O)NC(=O)[C@H](C)NC(=O)[C@H](CC(C)C)NC(=O)[C@H](CCCNC(=N)N)NC(=O)[C@H](CCC(N)=O)NC(=O)[C@@H](NC(=O)[C@H](C)NC(=O)[C@@H]1CSSC[C@H](NC(=O)[C@@H](N)CCCCNC(=O)CC[C@H](NC(=O)CC[C@H](NC(=O)CCCCCCCCCCCCCCCCC(=O)O)C(=O)O)C(=O)O)C(=O)N[C@@H](CC(N)=O)C(=O)N[C@@H]([C@@H](C)O)C(=O)N[C@@H](C)C(=O)N[C@@H]([C@@H](C)O)C(=O)N1)[C@@H](C)O)C(C)C)C(=O)N[C@@H](CC(C)C)C(=O)N1CCC[C@H]1C(=O)N1CCC[C@H]1C(=O)N[C@H](C(=O)NC(C)(C)C(=O)N[C@H](C(=O)NCC(=O)N[C@@H](CO)C(=O)N[C@@H](CC(N)=O)C(=O)N[C@H](C(=O)N[C@@H](Cc1ccc(O)cc1)C(N)=O)[C@@H](C)O)C(C)C)[C@@H](C)O [Peptide 89, K(γE-γE-C18diacid)[CNTATCJATQRLANFLVHSS(Aib)NFGPILPPT(Aib)VGSNTY-amide] (H-K([γGlu-γGlu-C18 diacid])CNTATCATQRLANFLVHSS[Aib]NFGPILPPT[Aib]VGSNTY-NH2; disulfide 2-7; N-terminus assumed) | 447 pM | 8240 pM | – | – | – |
| CC[C@H](C)[C@H](NC(=O)[C@@H]1CCCN1C(=O)CNC(=O)[C@H](Cc1ccccc1)NC(=O)[C@H](CC(N)=O)NC(=O)[C@H](CC(N)=O)NC(=O)[C@H](CO)NC(=O)[C@H](CO)NC(=O)[C@H](Cc1c[nH]cn1)NC(=O)C(C)(C)NC(=O)[C@H](CC(C)C)NC(=O)[C@H](Cc1ccccc1)NC(=O)[C@H](CCC(=O)O)NC(=O)[C@H](C)NC(=O)[C@H](CC(C)C)NC(=O)[C@H](CCCNC(=N)N)NC(=O)[C@H](CCC(N)=O)NC(=O)[C@@H](NC(=O)[C@H](C)NC(=O)[C@@H]1CSSC[C@H](NC(=O)[C@H](CCCCN)NC(=O)[C@@H](N)CCCCNC(=O)CC[C@H](NC(=O)CCCCCCCCCCCCCCCCC(=O)O)C(=O)O)C(=O)N[C@@H](CC(N)=O)C(=O)N[C@@H]([C@@H](C)O)C(=O)N[C@@H](C)C(=O)N[C@@H]([C@@H](C)O)C(=O)N1)[C@@H](C)O)C(=O)N[C@@H](CC(C)C)C(=O)N1CCC[C@H]1C(=O)N1CCC[C@H]1C(=O)N[C@H](C(=O)N[C@@H](CC(N)=O)C(=O)N[C@H](C(=O)NCC(=O)N[C@@H](CO)C(=O)N[C@@H](CC(N)=O)C(=O)N[C@H](C(=O)N[C@@H](Cc1ccc(O)cc1)C(N)=O)[C@@H](C)O)C(C)C)[C@@H](C)O [Peptide 128] (H-K([γGlu-C18 diacid])KCNTATCATQRLAEFL[Aib]HSSNNFGPILPPTNVGSNTY-NH2; disulfide 3-8; N-terminus assumed) | – | – | 4.8 | 118 pM | 568 pM |

— US20240067693A1, “POLYPEPTIDES AND USES THEREOF” (MEDIMMUNE LIMITED, priority 2020, published 2024)
